Consider 1 compound from PMC5111108, “An insecticide resistance-breaking mosquitocide targeting inward rectifier potassium channels in vectors of Zika virus and malaria” (Scientific Reports, 2016).

Broadly, the inhibition is the relative decrease from the control value, in per cent.

One data set deals with T1, Kir4.1 (Homo sapiens, UniProt P78508).
T1 construct: expressed in transfected cells
T1 sequence (P78508 1-379): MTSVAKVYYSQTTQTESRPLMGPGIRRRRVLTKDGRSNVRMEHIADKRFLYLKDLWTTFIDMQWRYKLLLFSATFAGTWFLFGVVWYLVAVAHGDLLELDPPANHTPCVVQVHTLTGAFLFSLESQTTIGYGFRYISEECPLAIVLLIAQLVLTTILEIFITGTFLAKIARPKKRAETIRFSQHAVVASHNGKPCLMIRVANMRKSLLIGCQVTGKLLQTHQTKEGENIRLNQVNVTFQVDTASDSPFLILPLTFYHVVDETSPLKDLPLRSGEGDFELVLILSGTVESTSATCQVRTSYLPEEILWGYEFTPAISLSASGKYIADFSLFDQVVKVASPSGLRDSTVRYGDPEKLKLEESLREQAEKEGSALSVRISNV
The experiment in a line: Tl+ flux assay, mammalian Kir4.1. The class given is cell-based.

For another data set, the system named is Ae. aegypti. Briefly: In vivo diuresis assay in adult female Ae. aegypti (LVP). Details: species or system Aedes aegypti. The note with it: topical 1.7 μg/mg mosquito 2 h before injection of 900 nL K+-PBS, 1 h. Here is the method:
The excretory capacity of adult female Ae. aegypti (LVP strain) was measured as described previously. […] The K^+-PBS consisted of the following (in mM): 92.2 NaCl, 47.5 KCl, 10 Na2HPO4 and 2 KH2PO4 (pH 7.5). Each treatment group of 5 mosquitoes was transferred into a separate graduated, packed-cell volume tube (MidSci, St. Louis, MO) and held for 1 h at 28 °C. The volume excreted by the mosquitoes was measured visually via the graduated column at the bottom of the tube. At least 8 replicates (5 mosquitoes per replicate) were performed for each treatment. All mosquitoes were confirmed to be alive at the end of 1 h.

The next data set has as its system honey bee, A. mellifera. Briefly: Acute topical toxicity to adult honey bees. It is filed as in vivo, Apis mellifera. The following applies: 1 mg per bee topical, 48 h. The method, then:
Frames of late-stage honey bee (A. mellifera) pupae were taken from four colonies at The Ohio State University Honey Bee Lab in Wooster, OH and maintained in a dark humid incubator at 34 °C (Darwin Chambers Co., St. Louis, MO, model H024) until adult bees emerged. New adults were brushed from frames daily and placed in wooden screen cages (21 × 14 × 12 cm) provisioned with 1:1 (w/w) sucrose in water.
Acute toxicity experiments in adult bees were performed as follows. Twenty-four hours after emergence, adult honey bees in cages were anaesthetized with carbon dioxide, divided into groups of approximately 20 bees and placed in plastic-coated paper cups (177 cm^3; UNIQ Paper Yogurt Cup, Frozen Dessert Supplies, Gilbert, AZ) covered with cotton cheesecloth. […] As a positive control, some bees were treated with 3 μl of bifenthrin (0.1 μg/μl); negative controls consisted of bees treated with 3 μl of solvent. Applications were made using a 20 μl micropipette (Fisherbrand Finnpipette F2, Fisher Scientific, Pittsburgh, PA) with disposable plastic tips. After treatment, bees were returned to the paper cups and provided with sugar syrup in punctured 1.5 ml microcentrifuge tubes. […] Bees showing no movement on inspection at 48 h after treatment were scored as dead.

The next data set addresses T2, Kir1.1 (Rattus norvegicus, UniProt P35560).
T2 sequence (P35560 1-391): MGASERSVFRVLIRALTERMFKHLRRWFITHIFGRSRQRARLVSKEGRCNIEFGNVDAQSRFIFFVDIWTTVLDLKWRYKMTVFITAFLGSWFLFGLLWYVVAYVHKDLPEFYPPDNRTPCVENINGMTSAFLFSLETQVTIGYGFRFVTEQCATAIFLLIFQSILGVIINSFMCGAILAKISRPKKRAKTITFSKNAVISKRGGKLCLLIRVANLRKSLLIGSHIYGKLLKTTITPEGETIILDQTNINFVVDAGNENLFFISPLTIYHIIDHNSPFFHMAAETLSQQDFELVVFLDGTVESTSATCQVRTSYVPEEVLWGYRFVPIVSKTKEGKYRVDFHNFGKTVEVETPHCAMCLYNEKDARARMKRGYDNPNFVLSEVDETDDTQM
Briefly: Tl+ flux assay, mammalian Kir1.1. It is filed as cell-based. The note with it: read-out: inhibition of Kir1.1.

Where only a bound is given, the exact number is not on record here.

As to `O=C(Cn1nc(C(F)(F)F)c2c1CCCC2)N1CCCc2ccccc21` [VU041, 1-(3,4-dihydroquinolin-1(2H)-yl)-2-(3-(trifluoromethyl)-4,5,6,7-tetrahydro-1H-indazol-1-yl)ethan-1-one], the inhibition at 30 µM on Kir4.1 and on Kir1.1 was less than 10% in each case. Besides, the “diuretic capacity (urine excreted) compared to controls, reduction” value in the data set with Ae. aegypti is on record as ~ 51%. Moreover, the honey bees alive with honey bee, A. mellifera is reported as 91.3%.
